Test results published in patent US11691989B2, “Macrocyclic indoles as Mcl-1 inhibitors” (ASCENTAGE PHARMA (SUZHOU) CO., LTD., priority 2018, dated 2023).

Assays:
[1] = molecular target: Mcl-1 protein (residues 171-323) (Homo sapiens (Human), UniProt Q07820); assay: Inhibition of Mcl-1 by fluorescence polarization (FP) competitive binding assay with FAM-Bid tracer; conditions: 2 nM FAM-Bid, 20 nM Mcl-1, 30 min, read-out: Mc1-1 (FP)
Procedure: Inhibition of Mcl-1 by fluorescence polarization (FP) assay.
The method used a fluorescein labelled peptide (FAM-Bid) which binds to the Mcl-1 protein leading to an increased anisotropy measured in milli-polarization (mP) values using a plate reader.
A 10-points serial dilution of each compound was prepared in DMSO and 5 μL solution was transferred into flat bottomed, 96-well back plate (final DMSO concentration 5%). 120 μL of Buffer (PBS, 0.01% BGG (Sigma Cat. #SRE0011), 0.01% Triton X-100), containing the Fluorescein labelled peptide (Final concentration 2 nM) and Mcl-1 protein (final concentration 20 nM) was then added. […] 10-points dose response curves were plotted with GraphPad software using Sigmoidal Dose-Response Model and the IC50 values were determined by nonlinear regression fitting of the competition curves.

[2] = system: OPM-2 cells; assay: Cell viability assay (OPM-2 cells), CCK-8; format: cell-based; conditions: 5% FBS
Procedure: Cell Viability Assay (OPM-2 cells)
OPM-2 cells were obtained from Deutsche Sammlung von Mikroorganismen and Zellkulturen GmbH (DSMZ). Cells were maintained in the recommended culture medium with 10% FBS at 37° C. and an atmosphere of 5% CO2.
The effect of representative Compounds of the Disclosure on cell viability was determined using Cell Counting Kit-8 (CCK-8) assay (Shanghai Life iLab Bio Technology) according to the manufacturer's instructions. Each tested compound was serially diluted in culture medium, 100 μL of the compound dilution was added into 96-well plates. 100 μL of an OPM-2 cell suspension (20000 cells/well) in culture medium were seeded into the corresponding well of the plate and the cells were incubated at 37° C. in an atmosphere of 5% CO2 for 24 hours. In the next day, 20 μL of CCK-8 solution was added to each well of the plate and incubated for 4 hours.
The plates were read at 450 nm on the microplate spectrophotometer (SpectraMax plus 384, Molecular devices). The readings were normalized to the vehicle cells, and the IC50 was calculated by nonlinear regression analysis using GraphPad Prism 6 software.

[3] = system: NCI-H929 cells; assay: Cell viability assay (NCI-H929 cells), CCK-8; format: cell-based; conditions: 5% FBS
Procedure: Cell Viability Assay (NCI-H929 cells)
NCI-H929 cells were obtained from American Type Culture Collection (ATCC). Cells were maintained in the recommended culture medium (RPMI 1640) with 10% FBS and 0.05 mM BME at 37° C. and an atmosphere of 5% CO2.
The effect of Compounds on cell viability was determined using Cell Counting Kit-8 (CCK-8) assay according to the manufacturer's instructions. 95 μL of NCI-H929 cell suspension (20000 cells/well) in culture medium were seeded into 96-well plates and cultured 4 hrs. Each tested compound was serially diluted in DMSO, then 5 μL of the compound or DMSO was diluted in 95 μL medium once more. At last, 5 μL of the compound dilution was added to the corresponding well of the cell plate. After the addition of the tested compound, the cells were incubated at 37° C. in an atmosphere of 5% CO2 for 24 hrs. At the end, 10 μL of CCK-8 solution was added to each well of the plate and incubated for 1-4 hours. The plates were read at 450 nm on the microplate reader (BioTek Synergy 1MF). The readings were normalized to the vehicle cells, and the IC50 was calculated by nonlinear regression analysis using GraphPad Prism 6 software.

Sequence of Mcl-1 protein (residues 171-323) (Q07820 171-323): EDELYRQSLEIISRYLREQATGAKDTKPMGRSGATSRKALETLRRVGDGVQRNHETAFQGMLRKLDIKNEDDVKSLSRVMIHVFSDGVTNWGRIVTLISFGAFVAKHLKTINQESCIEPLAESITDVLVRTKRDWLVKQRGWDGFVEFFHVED

IC50 [1] | IC50 ([3]; Homo sapiens, NCI-H929, 24 h) | IC50 ([3]; 24 hrs) | Compound | IC50 ([2]; Homo sapiens, OPM-2, 24 h) | IC50 ([2]; 24 hours)
12 nM | 243 nM | – | Cc1nn(C)c2c1-c1c(Cl)ccc3c1c(C)c(C(=O)O)n3CCCOc1cc(cc3ccccc13)SCc1cc(nn1C)CN(S(C)(=O)=O)C2 [Cpd. No. 48, (Z)-1^5-chloro-1^3,2^1,2^3,6^1-tetramethyl-4-(methylsulfonyl)-1^1H,2^1H,6^1H-10-oxa-8-thia-4-aza-1(4,1)-indola-2(4,5),6(3,5)-dipyrazola-9(3,1)-naphthalenacyclotridecaphane-1^2-carboxylic acid] | 587 nM | –
17 nM | 1850 nM | – | Cc1c(C(=O)O)n2c3ccc(Cl)c(c13)-c1c(nn3c1COCC3)CN(S(C)(=O)=O)Cc1cc(n(C)n1)CSc1cc(c3ccc(F)cc3c1)OCCC2 [Cpd. No. 30, (Z)-1^5-chloro-9^6-fluoro-4-(isopropylsulfonyl)-1^3, 6^1-di methyl-2^6,2^7-dihydro-1^1H,2^4H,6^1H-10-oxa-8-thia-4-aza-2(3,2)-pyrazolo[5,1-c][1,4]oxazina-1(4,1)-indola-6(3,5)-pyrazola-9(3,1)-naphthalenacyclotridecaphane-1^2-carboxylic acid] | 5240 nM | –
15 nM | 285 nM | – | COCCn1nc(C)c2c1CSCc1cc(n(C)n1)CSc1cc(c3ccccc3c1)OCCCn1c(C(=O)O)c(C)c3c-2c(Cl)ccc31 [Cpd. No. 27, (Z)-1^5-chloro-2^1-(2-methoxyethyl)-1^3,2^3,6^1-trimethyl-1^1H,2^1H,6^1H-10-oxa-4,8-dithia-1(4,1)-indola-2(4,5),6(3,5)-dipyrazola-9(3,1)-naphthalenacyclotridecaphane-1^2-carboxylic acid] | 258 nM | –
29 nM | 1500 nM | – | Cc1c(C(=O)O)n2c3ccc(Cl)c(c13)-c1c(nn(C)c1C)CN(S(=O)(=O)c1ccn(C)n1)Cc1cc(n(C)n1)CSc1cc(c3ccc(F)cc3c1)OCCC2 [Cpd. No. 37, (Z)-1^5-chloro-9^6-fluoro-1^3,2^1,2^5,6^1-tetramethyl-4#1-methyl-1H-pyrazol-3-yl))sulfonyl)-1^1H,2^1H,6^1H-10-oxa-8-thia-4-aza-1(4,1)-indola-2(4,3),6(3,5)-dipyrazola-9(3,1)-naphthalenacyclotridecaphane-1^2-carboxylic acid] | 3160 nM | –
13 nM | 159 nM | – | Cc1c(C(=O)O)n2c3ccc(Cl)c(c13)-c1c(nn(C)c1C)CN(S(=O)(=O)N(C)C)Cc1cc(n(C)n1)CSc1cc(c3ccc(F)cc3c1)OCCC2 [Cpd. No. 40, (Z)-1^5-chloro-9^6-fluoro-1^3,2^1,2^5,6^1-tetramethyl-4-(N, N-dimethylsulfamoyl)-1^1H,2^1H,6^1H-10-oxa-8-thia-4-aza-1 (4,1)-indola-2(4,3),6(3,5)-dipyrazola-9(3,1)-naphthalenacyclotridecaphane-1^2-carboxylic acid] | 190 nM | –
21 nM | 4290 nM | – | Cc1c2c(nn1C)CSCc1cc(n(C)n1)CSc1cc(c3ccc(F)cc3c1)OCCCn1c(C(=O)O)c(C#N)c3c-2c(Cl)ccc31 [Cpd. No. 25, (Z)-1^5-chloro-1^3-cyano-9^6-fluoro-2^1,2^5,6^1-trimethyl-1^1H,2^1H,6^1H-10-oxa-4,8-dithia-1(4,1)-indola-2(4,3),6(3,5)-dipyrazola-9(3,1)-naphthalenacyclotridecaphane-1^2-carboxylic acid] | 5970 nM | –
5 nM | 170 nM | – | Cc1c(C(=O)O)n2c3ccc(Cl)c(c13)-c1c(nn(C)c1C)CN(S(=O)(=O)C(F)(F)F)Cc1cc(n(C)n1)CSc1cc(c3ccccc3c1)OCCC2 [Cpd. No. 47, (Z)-1^5-chloro-1^3,2^1,2^5,6^1-tetramethyl-4-((trifluoromethyl)sulfonyl)-1^1H,2^1H,6^1H-10-oxa-8-thia-4-aza-1(4,1)-indola-2(4,3),6(3,5)-dipyrazola-9(3,1)-naphthalenacyclotridecaphane-1^2-carboxylic acid] | 229 nM | –
5 nM | – | 204 nM | (Z)-1^5-chloro-9^6-fluoro-1^3,2^1,2^3,6^1-tetramehtyl-4-(methylsulfonyl)-1^1H,2^1H,6^1H-10-oxa-8-thia-4-aza-1(4,1)-indola-2(4,5),6(3,5)-dipyrazola-9(3,1)- naphthalenacyclotridecaphane-1^2-carboxylic acid [Cpd. No. 49] | – | 308 nM
10 nM | 170 nM | – | Cc1c(C(=O)O)n2c3ccc(F)c(c13)-c1c(nn(C)c1C)CSCc1cc(n(C)n1)CSc1cc(c3ccc(F)cc3c1)OCCC2 [Cpd. No. 21, (Z)-1^5,9^6-difluoro-1^3,2^1,2^5,6^1-tetramethyl-1^1H,2^1H,6^1H-10-oxa-4,8-dithia-1(4,1)-indola-2(4,3), 6(3,5)-dipyrazola-9(3,1)-naphthalenacyclotridecaphane-1^2-carboxylic acid] | 223 nM | –
27 nM | 673 nM | – | Cc1c(C(=O)O)n2c3ccc(Cl)c(c13)-c1c(nn(C)c1C)CN(CC(=O)N(C)C)Cc1cc(n(C)n1)CSc1cc(c3ccc(F)cc3c1)OCCC2 [Cpd. No. 54, (Z)-1^5-chloro-4-(2-(dimethylamino)-2-oxoethyl)-9^6-fluoro-1^3,2^1,2^5, 6^1--tetramethyl-1^1H,2^1H,6^1H-10-oxa-8-thia-4-aza-1(4,1)-indola-2(4,3),6(3,5)-dipyrazola-9(3,1)-naphthalenacyclotridecaphane-1^2-carboxylic acid] | 3480 nM | –
27 nM | 696 nM | – | Cc1c(C(=O)O)n2c3ccc(Cl)c(c13)-c1c(nn(C)c1C)CN(S(=O)(=O)c1cnn(C)c1)Cc1cc(n(C)n1)CSc1cc(c3ccc(F)cc3c1)OCCC2 [Cpd. No. 36, (Z)-1^5-chloro-9^6-fluoro-1^3,2^1,2^5,6^1-tetramethyl-4#1-methyl-1H-pyrazol-4-yl)sulfonyl)-1^1H,2^1H,6^1H-10-oxa-8-thia-4-aza-1(4,1)-indola-2(4,3),6(3,5)-dipyrazola-9(3,1)-naphthalenacyclotridecaphane-1^2-carboxylic acid] | 2020 nM | –
24 nM | 145 nM | – | Cc1c(C(=O)O)n2c3ccc(Cl)c(c13)-c1c(nn(C)c1C)CN(c1ccccc1)Cc1cc(n(C)n1)CSc1cc(c3ccc(F)cc3c1)OCCC2 [Cpd. No. 55, (Z)-1^5-chloro-9^6-fluoro-1^3,2^1,2^5,6^1-tetramethyl-4-phenyl-1^1H,2^1H,6^1E-10-oxa-8-thia-4-aza-1(4,1)-indola-2(4,3),6(3,5)-dipyrazola-9(3,1)-naphthalenacyclotridecaphane-1^2-carboxylic acid] | 744 nM | –
23 nM | 780 nM | – | Cc1c(C(=O)O)n2c3ccc(Cl)c(c13)-c1c(nn(C)c1C)CN(C(=O)c1nccn1C)Cc1cc(n(C)n1)CSc1cc(c3ccc(F)cc3c1)OCCC2 [Cpd. No. 44, (Z)-1^5-chloro-9^6-fluoro-1^3,2^1,2^5,6^1-tetramethyl-4-(1-methyl-1H-imidazole-2-carbonyl)-1^1H,2^1H,6^1H-10-oxa-8-thia-4-aza-1(4,1)-indola-2(4,3),6(3,5)-dipyrazola-9(3,1)-naphthalenacyclotridecaphane-1^2-carboxylic acid] | 1160 nM | –
